Source: US20130165475A1, “DEUTERIUM-ENRICHED HETEROCYCLIC COMPOUNDS AS KINASE INHIBITORS” (ASCEPION PHARMACEUTICALS, INC., priority 2010, published 2013)
Counter-ions that a name gives are not always drawn.

What was measured:
VEGFR2 = target: T1, VEGFR2 (Homo sapiens, UniProt P35968); assay: VEGFR2 cell-based assay (ELISA, phosphor-/total VEGFR2 in transfected CHO cells); conditions: compound at 100 nM; CHO cells transfected with full length VEGFR2; FBS stimulation; read-out: % VEGFR2 kinase activity remains
T1 construct: expressed in transfected cells; host or cells: CHO cells
From the text: A standard cell-based assay for VEGFR2 kinase activity can be used to test or screen the compounds of this invention and to identify VEGFR2 antagonists. In this example, ELISA kits (R&D Systems, Inc., Minneapolis, Minn. 55413, USA) were used.
The activity of VEGFR2 in cells depended on its autophosphorylation level by various factors including growth factors. In order to induce the cell to produce VEGFR2, full length of VEGFR2 sequence was cloned into PC-DNA3.1 vector, the plasmid was then transfected into CHO cells. After 48 hours, the expression of VEGFR2 in transfected CHO cells was confirmed by regular western blotting.
A compound to be tested was first dissolved in DMSO to a concentration of 10 mM and stored at −20° C. One day before the test, CHO cells transfected with full length VEGFR2 plasmid were grown in Dulbecco's Modified Eagle Medium (DMEM) without the presence of serum. On the day of the test, the compounds with various concentrations in DMSO (from 0.5 nM to 500 nM) were added into DMEM. Two hours later, 20% of FBS (Fetal Bovine Serum) was added into the medium to stimulate the production of phosphor-VEGFR2. Cell lysate from approximately 5×10^5 transfected CHO cells were reacted with anti-phosphor VEGFR2 or anti-total VEGFR2 antibody in 96-well plates, in the presence of detection antibody. The phosphor-VEGFR2 or total VEGFR2 were detected with Streptavidin-HRP(R&D Systems), followed by chemiluminescent detection. The level of VEGFR2 kinase activity was quantified as the ratio between the amount of phosphor- and that of total VEGFR2 proteins.

Mouse liver microsome = assay: Liver microsomal stability assay, mouse; assay type: in vitro ADME; parameters: key: A: the percentage of a compound remains is greater than that of its deuterium non-enriched counterpart; B: a result otherwise; conditions: 40 μM, 37° C., 30 min, 1 mg/ml microsome proteins; class relative to deuterium non-enriched counterpart
Method: (§1) A standard liver microsomal stability assay can be used to test or screen the compounds of this invention and to identify compounds with enhanced metabolic stability due to the enrichment of deuterium in the compounds. Liver microsome proteins prepared from different species such as mouse and rat were obtained from a commercial source (Research Institute for Liver Diseases, Shanghai, China). The assay was conducted in 1.5% potassium hydrogenphosphate (K2HPO4) in the presence of liver microsome proteins at 1 mg/ml and supplemented with an […] (3.3 mM NADPH, 3.3 mM glucose-6-phosphate, 6 units/ml G6PDase, and 3.3 mM magnesium chloride). Test compound was added into the assay mixture to a final concentration of 40 μM and incubated at 37° C. for 0 or 30 minutes. The reaction was stopped by the addition of 20 μM Bifonazole/CAN. Samples were then centrifuged at 14000 rpm for 10 minutes to precipitate proteins. Supernatant were then transferred to microcentrifuge tubes and subject to reverse phase HPLC analysis to determine the concentration of test compound.
(§2) The percentage of compounds that remained in the assay reactions after a thirty-minute incubation at 37° C. is calculated as the ratio between the amount of compound remained after a thirty-minute and that after a zero-minute incubation.

EphB4 = target: T2, EphB4 (Homo sapiens, UniProt P54760); assay: EphB4 cell-based assay (quantitative Western blotting, PC-3 cells, Ephrin-B2 stimulated); conditions: compound at 100 nM; PC-3 human prostate cancer cells; Ephrin-B2 stimulation; read-out: % EphB4 kinase activity remains
T2 construct: EphB4 autophosphorylation in PC-3 human prostate cancer cells; host or cells: PC-3 human prostate cancer cells
T2 sequence (P54760 16-987): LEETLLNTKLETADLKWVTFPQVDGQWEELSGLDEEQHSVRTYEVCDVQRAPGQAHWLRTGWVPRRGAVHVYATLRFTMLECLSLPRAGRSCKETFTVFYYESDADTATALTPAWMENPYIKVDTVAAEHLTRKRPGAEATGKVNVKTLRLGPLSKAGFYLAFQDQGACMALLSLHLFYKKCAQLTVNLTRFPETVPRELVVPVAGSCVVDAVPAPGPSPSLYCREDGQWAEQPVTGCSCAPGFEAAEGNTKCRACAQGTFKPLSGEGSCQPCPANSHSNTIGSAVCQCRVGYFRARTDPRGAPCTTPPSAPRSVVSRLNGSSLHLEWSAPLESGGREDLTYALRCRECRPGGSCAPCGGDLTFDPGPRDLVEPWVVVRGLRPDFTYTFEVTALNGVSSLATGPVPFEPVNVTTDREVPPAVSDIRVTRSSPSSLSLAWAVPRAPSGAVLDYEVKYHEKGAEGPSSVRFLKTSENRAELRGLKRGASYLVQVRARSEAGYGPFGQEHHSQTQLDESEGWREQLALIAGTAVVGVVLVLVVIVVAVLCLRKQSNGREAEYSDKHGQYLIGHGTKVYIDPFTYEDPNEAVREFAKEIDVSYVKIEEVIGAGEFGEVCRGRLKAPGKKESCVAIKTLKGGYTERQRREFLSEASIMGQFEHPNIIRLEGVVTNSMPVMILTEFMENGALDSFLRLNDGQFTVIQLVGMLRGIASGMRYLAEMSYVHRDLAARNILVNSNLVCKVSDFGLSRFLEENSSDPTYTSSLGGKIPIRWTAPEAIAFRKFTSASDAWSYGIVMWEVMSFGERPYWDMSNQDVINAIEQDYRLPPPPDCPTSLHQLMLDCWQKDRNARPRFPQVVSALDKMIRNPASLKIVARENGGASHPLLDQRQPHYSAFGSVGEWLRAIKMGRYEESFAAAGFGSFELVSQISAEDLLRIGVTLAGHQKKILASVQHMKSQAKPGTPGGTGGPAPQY
From the text: A standard image-based quantitative Western blotting assay for EphB4 kinase activity can be used to test or screen the compounds of this invention and to identify EphB4 antagonists.
The kinase activity of EphB4 in cells depends on its autophosphorylation level stimulated by the binding to its ligand Ephrin-B2. High level of EphB4 autophosphorylation in PC-3 human prostate cancer cells (ATCC, USA) induced by the application of Ephrin-B2 to the cell culture can be observed by regular Western blotting assay.
A compound to be tested was first dissolved in DMSO to a concentration of 10 mM and stored at −20° C. On the day of screening procedure, the compound in DMSO was added into DMEM medium to a final concentration of 100 nM. Two hours later, Ephrin-B2 ([…]) was added into DMEM medium to stimulate the production of phosphor-EphB4. The phosphor-EphB4 was detected based on its molecular weight and with anti-phosphor protein antibody PY-20 in cell lysate from approximately 5×10^5 PC-3 cells by Western blotting followed by imaging quantification. The relative level of EphB4 kinase activity was quantified as the ratio between the amount of phosphor-EphB4 and that of total Actin proteins.

Rat liver microsome = assay: Liver microsomal stability assay, rat; assay type: in vitro ADME; parameters: key: A: the percentage of a compound remains is greater than that of its deuterium non-enriched counterpart; B: a result otherwise; conditions: 40 μM, 37° C., 30 min, 1 mg/ml microsome proteins; class relative to deuterium non-enriched counterpart
Method: as §1, §2

T1 sequence (P35968 20-1356): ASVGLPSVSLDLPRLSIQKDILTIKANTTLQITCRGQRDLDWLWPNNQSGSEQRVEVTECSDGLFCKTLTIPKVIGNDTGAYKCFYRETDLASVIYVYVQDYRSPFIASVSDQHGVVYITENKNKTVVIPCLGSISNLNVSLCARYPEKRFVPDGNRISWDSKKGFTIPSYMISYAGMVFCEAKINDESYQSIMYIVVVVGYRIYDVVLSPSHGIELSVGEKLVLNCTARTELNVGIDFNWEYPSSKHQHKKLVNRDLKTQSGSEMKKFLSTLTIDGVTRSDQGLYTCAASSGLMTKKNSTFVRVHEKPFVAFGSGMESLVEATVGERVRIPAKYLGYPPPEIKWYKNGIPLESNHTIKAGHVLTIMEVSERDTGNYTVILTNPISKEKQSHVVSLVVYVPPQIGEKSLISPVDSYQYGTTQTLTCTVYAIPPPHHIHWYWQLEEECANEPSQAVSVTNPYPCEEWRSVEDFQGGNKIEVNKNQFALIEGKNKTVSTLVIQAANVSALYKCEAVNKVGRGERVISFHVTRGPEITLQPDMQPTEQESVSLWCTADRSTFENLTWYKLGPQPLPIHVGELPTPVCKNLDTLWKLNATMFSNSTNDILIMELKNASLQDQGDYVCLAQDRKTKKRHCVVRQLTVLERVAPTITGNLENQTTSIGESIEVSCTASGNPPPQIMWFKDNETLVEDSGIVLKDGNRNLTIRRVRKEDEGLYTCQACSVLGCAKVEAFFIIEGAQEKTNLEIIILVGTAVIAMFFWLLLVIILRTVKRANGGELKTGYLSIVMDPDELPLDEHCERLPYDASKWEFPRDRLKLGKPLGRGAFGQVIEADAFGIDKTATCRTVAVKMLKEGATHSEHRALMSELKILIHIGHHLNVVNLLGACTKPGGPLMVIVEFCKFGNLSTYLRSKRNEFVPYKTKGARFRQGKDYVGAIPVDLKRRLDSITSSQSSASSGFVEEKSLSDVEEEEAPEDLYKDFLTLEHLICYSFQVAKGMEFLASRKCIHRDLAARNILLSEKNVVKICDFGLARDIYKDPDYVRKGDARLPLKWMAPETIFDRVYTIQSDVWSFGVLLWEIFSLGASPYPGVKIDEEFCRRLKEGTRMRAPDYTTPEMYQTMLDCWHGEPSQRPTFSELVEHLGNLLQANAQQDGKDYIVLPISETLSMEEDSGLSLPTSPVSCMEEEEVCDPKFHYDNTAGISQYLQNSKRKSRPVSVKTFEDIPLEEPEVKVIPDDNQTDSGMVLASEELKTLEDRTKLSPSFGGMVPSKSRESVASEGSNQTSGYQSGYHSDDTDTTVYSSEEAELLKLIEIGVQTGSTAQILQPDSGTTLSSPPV

Compound	remaining activity at 0.1 µM (VEGFR2) [%]	% of compound remained at the 30th minutes, Mouse liver microsome (Mouse liver microsome)	remaining activity at 0.1 µM (EphB4) [%]	% of compound remained at the 30th minutes, Rat liver microsome (Rat liver microsome)
[2H]C([2H])(c1ccnc2[nH]ccc12)N1CCc2c(NC(=O)Nc3cccc(C)c3)cccc21 [Example 13, 1-[1-[Dideuterio(1H-pyrrolo[2,3-b]pyridin-4-yl)methyl]indolin-4-yl]-3-(m-tolyl)urea hydrochloride]	< 70	A	≥ 70	A
[2H]C([2H])(c1ccnc2[nH]ccc12)n1ccc2c(NC(=O)Nc3cccc(C)c3)cccc21 [Example 14, 1-[1-[dideuterio(1H-pyrrolo[2,3-b]pyridin-4-yl)methyl]indol-4-yl]-3-(m-tolyl)urea hydrochloride]	< 70	A	< 70	A
[2H]C(c1c[nH]c2ncccc12)N1CCc2c(NC(=O)Nc3cc(Cl)ccc3OC([2H])([2H])[2H])cccc21 (stereo not shown) [Example 15, 1-[5-Chloro-2-(trideuteriomethoxy)phenyl]-3-[1-[deuterio(1H-pyrrolo[2,3-b]pyridin-3-yl)methyl]indolin-4-yl]urea]	< 70	B	≥ 70	A
[2H]C(c1c[nH]c2ncccc12)n1ccc2c(NC(=O)Nc3cc(Cl)ccc3OC([2H])([2H])[2H])cccc21 (stereo not shown) [Example 16, 1-[5-chloro-2-(trideuteriomethoxy)phenyl]-3-[1-[deuterio(1H-pyrrolo[2,3-b]pyridin-3-yl)methyl]indol-4-yl]urea]	< 70	A	≥ 70	A
[2H]C(c1c[nH]c2ncccc12)N1CCc2c(NC(=O)Nc3cc(Cl)ccc3OC)cccc21 (stereo not shown) [Example 17, 1-(5-Chloro-2-methoxyphenyl)-3-[1-[deuterio(1H-pyrrolo[2,3-b]pyridin-3-yl)methyl]indolin-4-yl]urea]	< 70	A	< 70	A
[2H]C(c1c[nH]c2ncccc12)n1ccc2c(NC(=O)Nc3cc(Cl)ccc3OC)cccc21 (stereo not shown) [Example 18, 1-(5-chloro-2-methoxyphenyl)-3-[1-[deuterio(1H-pyrrolo[2,3-b]pyridin-3-yl)methyl]indol-4-yl]urea]	< 70	A	< 70	A
[2H]C(c1c[nH]c2ncccc12)N1CCc2c(NC(=O)Nc3cc(Cl)ccc3F)cccc21 (stereo not shown) [Example 19, 1-(5-Chloro-2-fluorophenyl)-3-[1-[deuterio(1H-pyrrolo[2,3-b]pyridin-3-yl)methyl]indolin-4-yl]urea]	< 70	B	≥ 70	B
[2H]C(c1c[nH]c2ncccc12)n1ccc2c(NC(=O)Nc3cc(Cl)ccc3F)cccc21 (stereo not shown) [Example 20, 1-(5-chloro-2-fluorophenyl)-3-[1-[deuterio(1H-pyrrolo[2,3-b]pyridin-3-yl)methyl]indol-4-yl]urea]	< 70	B	≥ 70	A
[2H]C(c1c[nH]c2ncccc12)N1CCc2c(NC(=O)Nc3cccc(C)c3)cccc21 (stereo not shown) [Example 21, 1-[1-[Deuterio(1H-pyrrolo[2,3-b]pyridin-3-yl)methyl]indolin-4-yl]-3-(m-tolyl)urea]	< 70	A	≥ 70	A
[2H]C(c1c[nH]c2ncccc12)n1ccc2c(NC(=O)Nc3cccc(C)c3)cccc21 (stereo not shown) [Example 22, 1-[1-[deuterio(1H-pyrrolo[2,3-b]pyridin-3-yl)methyl]indol-4-yl]-3-(m-tolyl)urea]	< 70	A	≥ 70	B
